We go through 23 compounds from US20120053197A1, “TRICYCLIC PYRIDINE DERIVATIVES, MEDICAMENTS CONTAINING SUCH COMPOUNDS, THEIR USE AND PROCESS FOR THEIR PREPARATION” (BOEHRINGER INGELHEIM INTERNATIONAL GMBH, priority 2010, published 2012).

The target in the assay is T1, recombinant human CETP (Homo sapiens, UniProt P11597).
T1 construct: made in house; host or cells: CHO cells (protein secreted into conditioned medium)
T1 sequence (P11597 18-493): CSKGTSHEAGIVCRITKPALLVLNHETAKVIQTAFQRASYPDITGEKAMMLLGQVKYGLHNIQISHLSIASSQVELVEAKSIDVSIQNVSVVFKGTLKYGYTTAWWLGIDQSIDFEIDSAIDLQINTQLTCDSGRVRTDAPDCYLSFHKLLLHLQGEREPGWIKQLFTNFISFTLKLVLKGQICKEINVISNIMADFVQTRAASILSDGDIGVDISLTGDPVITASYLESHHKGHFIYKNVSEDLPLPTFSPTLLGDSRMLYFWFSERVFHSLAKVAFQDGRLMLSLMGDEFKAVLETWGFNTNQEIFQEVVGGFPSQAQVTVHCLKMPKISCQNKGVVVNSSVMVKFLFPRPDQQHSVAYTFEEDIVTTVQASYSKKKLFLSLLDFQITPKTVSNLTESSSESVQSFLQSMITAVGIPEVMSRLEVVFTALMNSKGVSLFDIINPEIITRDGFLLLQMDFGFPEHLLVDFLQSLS
The assay can be described thus: CETP in vitro fluorometric assay (Roar Biomedical), cholesterol ester transfer from HDL to LDL. It is filed as biochemical. The note with it: recombinant human CETP from CHO cells; 3 hours at 37° C.; fluorescence ex 485 nm / em 535 nm; compound concentrations between 1 nM and 30 μM; read-out: IC50 values for inhibition of CETP. As for the experimental part: CETP inhibitory activity of compounds of the present invention can be determined in a fluorometric assay puchased from Roar Biomedical, Inc. (New York, N.Y., USA). […] Recombinant human CETP was partially purified from medium conditioned by CETP expressing CHO cells. In a 384 well format 2.5 μl of compound solution in DMSO was combined with 2 μl of donor solution, 2 μl of acceptor solution and 0.8 μl of recombinant human CETP solution in a total volume of 100 μl with assay buffer and incubated for 3 hours at 37° C. The fluorescence intensity was measured at excitation wavelength of 485 nm and emission wavelength of 535 nm. IC50 values are calculated from dose effect curves from compound concentrations between 1 nM and 30 μM.
For `CC(C)c1ccc([C@H]2OC3(CCCC3)c3c2c(C2CCCC2)nc2c3[C@@H](O)CC(C)(C)C2)cc1` [1(29), (3′R,9′S)-4′-cyclopentyl-3′-(4-isopropylphenyl)-7′,7′-dimethyl-6′,7′,8′,9′-tetrahydro-3′H-spiro[cyclopentane-1,1′-furo[3,4-c]quinolin]-9′-ol], the 50% inhibitory concentration (IC50) is 0.088 µM.
As for `CC(C)c1nc2c(c3c1[C@@H](c1ccc(C(C)(C)C)cc1)OC3(C)C)[C@@H](O)CC(C)(C)C2` [1(18), (3R,9S)-3-(4-tert-butylphenyl)-4-isopropyl-1,1,7,7-tetramethyl-1,3,6,7,8,9-hexahydrofuro[3,4-c]quinolin-9-ol], the figure is 0.363 µM.
With `CC(C)c1nc2c(c3c1[C@H](c1ccc(C(C)(C)C#N)cc1)OC31CCCC1)[C@@H](O)CC(C)(C)C2` [1(23), 2-(4-((3′S,9′S)-9′-hydroxy-4′-isopropyl-7′,7′-dimethyl-6′,7′,8′,9′-tetrahydro-3′H-spiro[cyclopentane-1,1′-furo[3,4-c]quinoline]-3′-yl)phenyl)-2-methylpropanenitrile], the concentration for half-maximal inhibition (IC50) stood at 2.14 µM.
The figure for `CC1(C)Cc2nc(C3CCOCC3)c3c(c2[C@@H](O)C1)C1(CCCC1)O[C@H]3c1ccc(C(F)(F)F)cc1` [1(13), (3′S,9′S)-7′,7′-dimethyl-4′-(tetrahydro-2H-pyran-4-yl)-3′-(4-(trifluoromethyl)phenyl)-6′,7′,8′,9′-tetrahydro-3′H-spiro[cyclopentane-1,1′-furo[3,4-c]quinolin]-9′-ol] is 6.89 µM.
The figure for `CC1(C)Cc2nc(C3CCCC3)c3c(c2[C@@H](O)C1)C1(CCCC1)O[C@@H]3c1ccc(F)cc1` [1(10), (3′R,9′S)-4′-cyclopentyl-3′-(4-fluorophenyl)-7′,7′-dimethyl-6′,7′,8′,9′-tetrahydro-3′H-spiro[cyclopentane-1,1′-furo[3,4-c]quinolin]-9′-ol] is 0.36 µM.
Consider `CC(C)c1nc2c(c3c1[C@@H](c1cnc(C(C)(C)C)nc1)OC31CCCC1)[C@@H](O)CC(C)(C)C2` [1(25), (3′R,9′S)-3′-(2-tert-butylpyrimidin-5-yl)-4′-isopropyl-7′,7′-dimethyl-6′,7′,8′,9′-tetrahydro-3′H-spiro[cyclopentane-1,1′-furo[3,4-c]quinolin]-9′-ol], for which the IC50 is 0.772 µM.
The figure for `CC(C)(C)c1ccc([C@H]2OC3(CCCC3)c3c2c(C2CCOCC2)nc2c3[C@@H](O)CC(C)(C)[C@H]2O)cc1` [Example 4, (3′R,6′R,9′S)-3′-(4-tert-butylphenyl)-7′,7′-dimethyl-4′-(tetrahydro-2H-pyran-4-yl)-6′,7′,8′,9′-tetrahydro-3′H-spiro[cyclopentane-1,1′-furo[3,4-c]quinoline]-6′,9′-diol] is 0.062 µM.
In the case of `CC(C)c1nc2c(c3c1[C@@H](c1ccc(C#N)cc1)OC31CCCC1)[C@@H](O)CC(C)(C)C2` [1(20), 4-((3′R,9′S)-9′-hydroxy-4′-isopropyl-7′,7′-dimethyl-6′,7′,8′,9′-tetrahydro-3′H-spiro[cyclopentane-1,1′-furo[3,4-c]quinoline]-3′-yl)benzonitrile], the IC50 was determined as 1.08 µM.
As for `CC1(C)Cc2nc(C3CCOCC3)c3c(c2[C@@H](O)C1)C1(CCCC1)O[C@@H]3c1ccc(C(C)(C)C)cc1` [1(36), (3′R,9′S)-3′-(4-tert-butylphenyl)-7′,7′-dimethyl-4′-(tetrahydro-2H-pyran-4-yl)-6′,7′,8′,9′-tetrahydro-3′H-spiro[cyclopentane-1,1′-furo[3,4-c]quinolin]-9′-ol], the figure is 0.074 µM.
As for `CC(C)c1nc2c(c3c1[C@@H](c1ccc(C(F)(F)F)cc1)OC31CCCC1)[C@@H](O)CC(C)(C)[C@@H]2O` [3(1), (3′R,6′S,9′S)-4′-isopropyl-7′,7′-dimethyl-3′-(4-(trifluoromethyl)phenyl)-6′,7′,8′,9′-tetrahydro-3′H-spiro[cyclopentane-1,1′-furo[3,4-c]quinoline]-6′,9′-diol], the figure is 0.394 µM; as for `CC(C)c1nc2c(c3c1[C@@H](c1ccc(C4(C#N)CC4)cc1)OC31CCCC1)[C@@H](O)CC(C)(C)C2` [1(44), 1-(4-((3′R,9′S)-9′-hydroxy-4′-isopropyl-7′,7′-dimethyl-6′,7′,8′,9′-tetrahydro-3′H-spiro[cyclopentane-1,1′-furo[3,4-c]quinoline]-3′-yl)phenyl)cyclopropanecarbonitrile], 0.069 µM.
As for `CC(C)c1nc2c(c3c1[C@@H](c1ccc(C(F)(F)F)cc1)OC31CCOCC1)[C@@H](O)CC(C)(C)C2` [1(30), (3R,9S)-4-isopropyl-7,7-dimethyl-3-(4-(trifluoromethyl)phenyl)-2′,3′,5′,6,6′,7,8,9-octahydro-3H-spiro[furo[3,4-c]quinoline-1,4′-pyran]-9-ol], the figure is 0.018 µM; as for `CC1(C)Cc2nc(C3CCC3)c3c(c2[C@@H](O)C1)C1(CCCC1)O[C@@H]3c1ccc(C(F)(F)F)cc1` [1(28), (3′R,9′S)-4′-cyclobutyl-7′,7′-dimethyl-3′-(4-(trifluoromethyl)phenyl)-6′,7′,8′,9′-tetrahydro-3′H-spiro[cyclopentane-1,1′-furo[3,4-c]quinolin]-9′-ol], 0.051 µM; as for `CC(C)c1ccc([C@H]2OC3(CCCC3)c3c2c(C(C)C)nc2c3[C@@H](O)CC3(CCC3)C2)cc1` [1(35), (3′R,9′S)-4′-isopropyl-7′,7′-(propan-1,3-diyl)-3′-(4-(isopropyl)phenyl)-6′,7′,8′,9′-tetrahydro-3′H-spiro[cyclopentane-1,1′-furo[3,4-c]quinolin]-9′-ol], 0.052 µM.
With `CC1(C)Cc2nc(C3CCOCC3)c3c(c2[C@@H](O)C1)C1(CCCC1)O[C@@H]3c1ccc(C(F)(F)F)cc1` [1(5), (3′R,9′S)-7′,7′-dimethyl-4′-(tetrahydro-2H-pyran-4-yl)-3′-(4-(trifluoromethyl)phenyl)-6′,7′,8′,9′-tetrahydro-3′H-spiro[cyclopentane-1,1′-furo[3,4-c]quinolin]-9′-ol], the 50% inhibitory concentration (IC50) is 0.042 µM.
As for `CC(C)c1nc2c(c3c1[C@H](c1ccc(C(F)(F)F)cc1)OC31CCCC1)[C@@H](O)CC(C)(C)C2` [1(1), (3′S,9′S)-4′-isopropyl-7′,7′-dimethyl-3′-(4-(trifluoromethyl)phenyl)-6′,7′,8′,9′-tetrahydro-3′H-spiro[cyclopentane-1,1′-furo[3,4-c]quinolin]-9′-ol], the figure is 1.43 µM; as for `CCc1nc2c(c3c1[C@@H](c1ccc(C(F)(F)F)cc1)OC31CCCC1)[C@@H](O)CC(C)(C)C2` [1(37), (3′R,9′S)-4′-ethyl-7′,7′-dimethyl-3′-(4-(trifluoromethyl)phenyl)-6′,7′,8′,9′-tetrahydro-3′H-spiro[cyclopentane-1,1′-furo[3,4-c]quinolin]-9′-ol], 0.418 µM.
For the compound `CC(C)c1nc2c(c3c1[C@@H](c1ccc(F)cc1)OC31CCCC1)[C@@H](O)CC(C)(C)C2` [1(8), (3′R,9′S)-3′-(4-fluorophenyl)-4′-isopropyl-7′,7′-dimethyl-6′,7′,8′,9′-tetrahydro-3′H-spiro[cyclopentane-1,1′-furo[3,4-c]quinolin]-9′-ol], the half-inhibitory concentration (IC50) is 0.856 µM.
As for `CC(C)c1nc2c(c3c1[C@@H](c1ccc(C(F)(F)F)s1)OC31CCCC1)[C@@H](O)CC(C)(C)C2` [1(24), (3′S,9′S)-4′-isopropyl-7′,7′-dimethyl-3′-(5-(trifluoromethyl)thiophen-2-yl)-6′,7′,8′,9′-tetrahydro-3′H-spiro[cyclopentane-1,1′-furo[3,4-c]quinolin]-9′-ol], the figure is 0.286 µM; as for `Cc1ccc([C@H]2OC3(CCCC3)c3c2c(C(C)C)nc2c3[C@@H](O)CC(C)(C)C2)cc1` [1(14), (3′R,9′S)-4′-isopropyl-7′,7′-dimethyl-3′-p-tolyl-6′,7′,8′,9′-tetrahydro-3′H-spiro[cyclopentane-1,1′-furo[3,4-c]quinolin]-9′-ol], 0.409 µM; as for `CC1(C)Cc2nc(C3CCCC3)c3c(c2[C@@H](O)C1)C(C)(C)O[C@@H]3c1ccc(C(C)(C)C)cc1` [1(19), (3R,9S)-3-(4-tert-butylphenyl)-4-cyclopentyl-1,1,7,7-tetramethyl-1,3,6,7,8,9-hexahydrofuro[3,4-c]quinolin-9-ol], 0.351 µM.
The figure for `CC(C)c1nc2c(c3c1[C@@H](c1ccc(C(C)(C)C)cc1)OC31CCCC1)[C@@H](O)CC(C)(C)C2` [1(11), (3′R,9′S)-3′-(4-tert-butylphenyl)-4′-isopropyl-7′,7′-dimethyl-6′,7′,8′,9′-tetrahydro-3′H-spiro[cyclopentane-1,1′-furo[3,4-c]quinolin]-9′-ol] is 0.036 µM.
Consider `CC(C)c1nc2c(c3c1[C@@H](c1ccc(C(C)(C)C)cc1)OC31CCOCC1)[C@@H](O)CC(C)(C)C2` [1(42), (3R,9S)-3-(4-tert-butylphenyl)-4-isopropyl-7,7-dimethyl-2′,3′,5′,6,6′,7,8,9-octahydro-3H-spiro[furo[3,4-c]quinoline-1,4′-pyran]-9-ol], for which the IC50 was 0.025 µM.
